US20210113501A1, “METHOD OF ADMINISTERING BETA-HYDROXY-BETA-METHYLBUTYRATE (HMB)” (Metabolic Technologies, Inc., priority 2009, published 2021)

Assay: Study 1 blood chemistry
Type: in vivo, human
Conditions: for Gamma-glutamyl: in U/L (unit assumed); for A:G Ratio % Change / Alanine Aminotransferase % Change / Albumin % Change / Alkaline Phosphatase % Change / Aspartate Aminotransferase % Change / Blood Urea Nitrogen % Change / CO2 % Change / Chloride % Change / Cholesterol Ratio % Change / Creatinine % Change / Direct Bilirubin % Change / Gamma-glutamyl % Change / Globulin % Change / Glucose % Change / HDL % Change / Iron % Change / Iron Binding Capacity % Change / Iron Saturation % Change / LDL % Change / Lactate Dehydrogenase % Change / Phosphorus % Change / Potassium % Change / Protein % Change / Sodium % Change / Total Bilirubin % Change / Total Cholesterol % Change / Triglycerides % Change / UIBC % Change / Uric Acid % Change: Before to After
Experimental: Study 1 design. For study 1 the subjects reported to the laboratory in the morning following an overnight fast. Before ingestion of one of the supplemental treatments, a flexible sterile polyethylene catheter was inserted into a forearm vein using sterile procedures and a pre-ingestion blood sample was drawn. Subsequent blood samples were taken at 0, 2, 5, 10, 15, 25, 35, 45, 60, 90, 120 and 180 min after ingestion of the treatment. Plasma was separated and samples were stored frozen at −70° C. for analysis of HMB concentration. In addition, a portion of the pre-ingestion and 180 minute blood samples were used for measurements (LabCorp, Kansas City, Mo.) of glucose, uric acid, blood urea nitrogen (BUN), creatinine, sodium, potassium, chloride, carbon dioxide, phosphorous, protein, albumin, globulin, albumin:globulin ratio, total bilirubin, direct bilirubin, alkaline phosphatase, lactate dehydrogenase, aspartate aminotransferase (AST), alanine aminotransferase (ALT), gamma-glutamyl transpeptidase (GGT), iron binding capacity (TIBC), unsaturated iron binding capacity (UIBC), iron, iron saturation, total cholesterol, triglycerides, high density lipoprotein (HDL), low density lipoprotein (LDL), and cholesterol ratio. A complete blood count (CBC) was also performed before and after the 180 min treatment period. Subjects also completed a brief questionnaire to report any physical symptoms (such as nausea, headache, etc) they may have experienced during the experiment.
The data were analyzed using a crossover design with Proc GLM in SAS. (45) For the timed sampling of plasma HMB a repeated measures polynomial model was used. The model included subject, order, and treatment main effects and time by treatment interaction where appropriate. For other parameters Proc GLM was also used with subject, order, and treatment main effects and the p values are reported for the treatment main effect. Statistical significance was determined for p<0.05 and a trend was determined for 0.05<p<0.10.

[1] = After (180 min), listed as Free Acid Gel Sublingual
[2] = listed as Free Acid Gel Sublingual
[3] = Before, listed as Free Acid Gel Sublingual

SMILES: CC(C)(O)CC(=O)O [HMB-Acid Gel Sublingual, 3-hydroxy-3-methylbutyric acid]
- Albumin (After (180 min)): 4.1 ± 0.2 g/dL
- Direct Bilirubin (After (180 min)): 0.1 ± 0.01 mg/dL
- Iron Saturation (After (180 min)): 30.9 ± 8.5%
- A:G Ratio [1]: 1.8 ± 0.1
- Alanine Aminotransferase [1]: 17.3 ± 2.7 IU/L
- Alkaline Phosphatase [1]: 66.8 ± 6.8 IU/L
- Aspartate Aminotransferase [1]: 28.3 ± 8.2 IU/L
- Blood Urea Nitrogen [1]: 12.9 ± 0.8 mg/dL
- CO2 [1]: 24.3 ± 0.6 mEq/L
- Chloride [1]: 102.4 ± 1.1 mEq/L
- Cholesterol Ratio [1]: 3.3 ± 0.2
- Creatinine [1]: 1.0 ± 0.04 mg/dL
- Globulin [1]: 2.3 ± 0.1 g/dL
- Glucose [1]: 77.4 ± 2.5 mg/dL
- HDL [1]: 49.3 ± 4.3 mg/dL
- Iron [1]: 94.6 ± 16.6 µg/dL
- Iron Binding Capacity [1]: 339.5 ± 30.8 µg/dL
- LDL [1]: 89.4 ± 4.9 mg/dL
- Lactate Dehydrogenase [1]: 167.3 ± 12.2 IU/L
- Phosphorus [1]: 3.5 ± 0.2 mg/dL
- Potassium [1]: 4.5 ± 0.1 mEq/L
- Protein [1]: 6.4 ± 0.2 g/dL
- Sodium [1]: 137.8 ± 0.9 mEq/L
- Total Bilirubin [1]: 0.5 ± 0.05 mg/dL
- Total Cholesterol [1]: 155.5 ± 5.8 mg/dL
- Triglycerides [1]: 83.8 ± 15.8 mg/dL
- UIBC [1]: 244.9 ± 39.5 µg/dL
- Uric Acid [1]: 4.0 ± 0.5 mg/dL
- Gamma-glutamyl [1]: 13.4 ± 1.2
- A:G Ratio (Before): 1.9 ± 0.1
- Creatinine (Before): 1.0 ± 0.1 mg/dL
- Direct Bilirubin (Before): 0.1 ± 0.01 mg/dL
- Total Bilirubin (Before): 0.4 ± 0.05 mg/dL
- A:G Ratio % Change [2]: −2.0%
- Alanine Aminotransferase % Change [2]: −0.7%
- Albumin % Change [2]: 1.5%
- Alkaline Phosphatase % Change [2]: 1.1%
- Aspartate Aminotransferase % Change [2]: 0.9%
- Blood Urea Nitrogen % Change [2]: −10.4%
- CO2 % Change [2]: 1.0%
- Chloride % Change [2]: −0.5%
- Cholesterol Ratio % Change [2]: −0.4%
- Creatinine % Change [2]: −1.5%
- Direct Bilirubin % Change [2]: 8.6%
- Gamma-glutamyl % Change [2]: 0.9%
- Globulin % Change [2]: 1.6%
- Glucose % Change [2]: 4.4%
- HDL % Change [2]: 1.3%
- Iron % Change [2]: 13.7%
- Iron Binding Capacity % Change [2]: 3.5%
- Iron Saturation % Change [2]: 6.0%
- LDL % Change [2]: 2.1%
- Lactate Dehydrogenase % Change [2]: 1.5%
- Phosphorus % Change [2]: −13.2%
- Potassium % Change [2]: 10.6%
- Protein % Change [2]: 1.6%
- Sodium % Change [2]: −1.1%
- Total Bilirubin % Change [2]: 22.6%
- Total Cholesterol % Change [2]: 0.7%
- Triglycerides % Change [2]: −8.7%
- UIBC % Change [2]: 0.1%
- Uric Acid % Change [2]: −2.2%
- Alanine Aminotransferase [3]: 17.4 ± 2.7 IU/L
- Albumin [3]: 4.1 ± 0.1 g/dL
- Alkaline Phosphatase [3]: 66.0 ± 6.3 IU/L
- Aspartate Aminotransferase [3]: 28.0 ± 7.9 IU/L
- Blood Urea Nitrogen [3]: 14.4 ± 0.8 mg/dL
- CO2 [3]: 24.0 ± 0.5 mEq/L
- Chloride [3]: 102.9 ± 0.6 mEq/L
- Cholesterol Ratio [3]: 3.3 ± 0.2
- Globulin [3]: 2.3 ± 0.2 g/dL
- Glucose [3]: 74.1 ± 1.7 mg/dL
- HDL [3]: 48.6 ± 4.6 mg/dL
- Iron [3]: 83.3 ± 16.4 µg/dL
- Iron Binding Capacity [3]: 328.0 ± 32.8 µg/dL
- Iron Saturation [3]: 29.1 ± 9.0%
- LDL [3]: 87.5 ± 5.7 mg/dL
- Lactate Dehydrogenase [3]: 164.8 ± 12.5 IU/L
- Phosphorus [3]: 4.1 ± 0.05 mg/dL
- Potassium [3]: 4.0 ± 0.03 mEq/L
- Protein [3]: 6.3 ± 0.2 g/dL
- Sodium [3]: 139.3 ± 0.8 mEq/L
- Total Cholesterol [3]: 154.4 ± 6.9 mg/dL
- Triglycerides [3]: 91.8 ± 16.1 mg/dL
- UIBC [3]: 244.8 ± 42.3 µg/dL
- Uric Acid [3]: 4.0 ± 0.4 mg/dL
- Gamma-glutamyl [3]: 13.3 ± 1.2

SMILES: CC(C)(O)CC(=O)[O-].CC(C)(O)CC(=O)[O-].[Ca+2] [CaHMB, calcium β-hydroxy-β-methylbutryate, reference compound]
- A:G Ratio (After (180 min)): 1.7 ± 0.1
- Alanine Aminotransferase (After (180 min)): 15.6 ± 2.0 IU/L
- Albumin (After (180 min)): 4.1 ± 0.1 g/dL
- Alkaline Phosphatase (After (180 min)): 68.4 ± 8.4 IU/L
- Aspartate Aminotransferase (After (180 min)): 22.4 ± 1.8 IU/L
- Blood Urea Nitrogen (After (180 min)): 11.3 ± 0.9 mg/dL
- CO2 (After (180 min)): 24.8 ± 0.5 mEq/L
- Chloride (After (180 min)): 103.1 ± 0.7 mEq/L
- Cholesterol Ratio (After (180 min)): 3.0 ± 0.1
- Creatinine (After (180 min)): 0.9 ± 0.1 mg/dL
- Direct Bilirubin (After (180 min)): 0.1 ± 0.01 mg/dL
- Globulin (After (180 min)): 2.5 ± 0.2 g/dL
- Glucose (After (180 min)): 76.4 ± 3.2 mg/dL
- HDL (After (180 min)): 53.1 ± 3.8 mg/dL
- Iron (After (180 min)): 93.0 ± 16.8 µg/dL
- Iron Binding Capacity (After (180 min)): 342.8 ± 35.9 µg/dL
- Iron Saturation (After (180 min)): 31.1 ± 8.9%
- LDL (After (180 min)): 86.5 ± 5.7 mg/dL
- Lactate Dehydrogenase (After (180 min)): 165.6 ± 10.7 IU/L
- Phosphorus (After (180 min)): 3.5 ± 0.3 mg/dL
- Potassium (After (180 min)): 4.7 ± 0.2 mEq/L
- Protein (After (180 min)): 6.5 ± 0.3 g/dL
- Sodium (After (180 min)): 139.4 ± 0.8 mEq/L
- Total Bilirubin (After (180 min)): 0.5 ± 0.08 mg/dL
- Total Cholesterol (After (180 min)): 153.9 ± 9.7 mg/dL
- Triglycerides (After (180 min)): 71.6 ± 11.2 mg/dL
- UIBC (After (180 min)): 249.8 ± 47.7 µg/dL
- Uric Acid (After (180 min)): 4.5 ± 0.4 mg/dL
- Gamma-glutamyl (After (180 min)): 13.1 ± 0.9
- A:G Ratio (Before): 1.8 ± 0.1
- Alanine Aminotransferase (Before): 14.1 ± 1.5 IU/L
- Albumin (Before): 4.0 ± 0.1 g/dL
- Alkaline Phosphatase (Before): 66.5 ± 6.5 IU/L
- Aspartate Aminotransferase (Before): 21.4 ± 1.5 IU/L
- Blood Urea Nitrogen (Before): 12.1 ± 1.0 mg/dL
- CO2 (Before): 23.4 ± 0.6 mEq/L
- Chloride (Before): 103.3 ± 0.6 mEq/L
- Cholesterol Ratio (Before): 3.0 ± 0.1
- Creatinine (Before): 0.9 ± 0.1 mg/dL
- Direct Bilirubin (Before): 0.1 ± 0.02 mg/dL
- Globulin (Before): 2.3 ± 0.2 g/dL
- Glucose (Before): 72.6 ± 1.6 mg/dL
- HDL (Before): 51.3 ± 3.2 mg/dL
- Iron (Before): 83.3 ± 16.7 µg/dL
- Iron Binding Capacity (Before): 330.4 ± 32.9 µg/dL
- Iron Saturation (Before): 29.9 ± 9.5%
- LDL (Before): 86.1 ± 5.3 mg/dL
- Lactate Dehydrogenase (Before): 160.9 ± 9.5 IU/L
- Phosphorus (Before): 3.9 ± 0.2 mg/dL
- Potassium (Before): 4.1 ± 0.1 mEq/L
- Protein (Before): 6.3 ± 0.2 g/dL
- Sodium (Before): 139.1 ± 0.5 mEq/L
- Total Bilirubin (Before): 0.5 ± 0.07 mg/dL
- Total Cholesterol (Before): 153.4 ± 9.1 mg/dL
- Triglycerides (Before): 80.4 ± 11.6 mg/dL
- UIBC (Before): 247.1 ± 45.0 µg/dL
- Uric Acid (Before): 4.5 ± 0.3 mg/dL
- A:G Ratio % Change: −8.9%
- Alanine Aminotransferase % Change: 10.6%
- Albumin % Change: 0.3%
- Alkaline Phosphatase % Change: 2.8%
- Aspartate Aminotransferase % Change: 4.7%
- Blood Urea Nitrogen % Change: −7.2%
- CO2 % Change: 5.9%
- Chloride % Change: −0.1%
- Cholesterol Ratio % Change: −2.5%
- Creatinine % Change: 0.5%
- Direct Bilirubin % Change: 5.8%
- Gamma-glutamyl % Change: −4.5%
- Globulin % Change: 8.2%
- Glucose % Change: 5.2%
- HDL % Change: 3.7%
- Iron % Change: 11.7%
- Iron Binding Capacity % Change: 3.7%
- Iron Saturation % Change: 4.2%
- LDL % Change: 0.4%
- Lactate Dehydrogenase % Change: 3.0%
- Phosphorus % Change: −10.8%
- Potassium % Change: 13.4%
- Protein % Change: 3.2%
- Sodium % Change: 0.2%
- Total Bilirubin % Change: 7.9%
- Total Cholesterol % Change: 0.3%
- Triglycerides % Change: −10.9%
- UIBC % Change: 1.1%
- Uric Acid % Change: −1.4%
- Gamma-glutamyl (Before): 13.8 ± 0.9
